Among the data in ChEMBL document CHEMBL1201862, “PubChem BioAssay data set” (2004) are IC50 and EC50 values, retold here.

Molecules are shown by their SMILES. Active and inactive are the calls of the source.

The target in assay [1] is T1, Alkaline phosphatase, tissue-nonspecific isozyme (Homo sapiens, UniProt P05186).
T1 sequence (P05186 whole entry): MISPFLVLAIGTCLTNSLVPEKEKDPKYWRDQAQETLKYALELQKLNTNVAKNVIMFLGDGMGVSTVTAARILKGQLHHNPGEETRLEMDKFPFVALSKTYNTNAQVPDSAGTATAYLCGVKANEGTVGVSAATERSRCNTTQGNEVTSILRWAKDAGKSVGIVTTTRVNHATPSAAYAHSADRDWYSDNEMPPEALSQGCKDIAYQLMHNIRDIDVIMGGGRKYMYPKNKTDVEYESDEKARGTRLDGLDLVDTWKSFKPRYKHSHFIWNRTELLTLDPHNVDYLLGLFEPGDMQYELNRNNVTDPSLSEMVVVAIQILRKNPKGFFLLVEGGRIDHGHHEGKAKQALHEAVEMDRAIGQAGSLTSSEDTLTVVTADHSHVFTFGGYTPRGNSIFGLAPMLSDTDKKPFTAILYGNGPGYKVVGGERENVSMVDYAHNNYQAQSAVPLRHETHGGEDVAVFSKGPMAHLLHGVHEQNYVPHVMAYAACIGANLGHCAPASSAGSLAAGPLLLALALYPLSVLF
Briefly: potency against alkaline phosphatase TNAP – biochemical, luminescent, dose response, SAR follow-up (AID 1056).

Assay [2] deals with Alkaline phosphatase, placental type (Homo sapiens, UniProt P05187). The assay is described as follows: human placental alkaline phosphatase inhibition – biochemical, luminescence, confirmation (AID 1512). The class given is functional.
For assay [3], the target named is T2, G-protein coupled receptor 55 (Homo sapiens, UniProt Q9Y2T6). Briefly: SAR analysis of selective Agonists of GPR55 using an Image-Based Assay - Set 2. [Related pubchem assays (depositor defined):AID1961, AID1965]. The class given is functional.
Assay [4] has as its target T3, Cannabinoid receptor 1 (Homo sapiens, UniProt P21554). The assay is described as follows: SAR analysis of agonists of the Cannabinoid Receptor 1 using an Image-Based Assay - Set 3. [Related pubchem assays (depositor defined):AID1961, AID1965]. The class given is functional.
The target of assay [5] is T3, Cannabinoid receptor 1. Briefly: SAR analysis of antagonists of the Cannabinoid Receptor 1 using an Image-Based Assay - Set 3. [Related pubchem assays (depositor defined):AID1961, AID1965]. The class given is functional.
The target of assay [6] is T4, Cannabinoid receptor 2 (Homo sapiens, UniProt P34972). The assay is described as follows: SAR analysis of agonists of the Cannabinoid Receptor 2 using an Image-Based Assay - Set 2. [Related pubchem assays (depositor defined):AID1961, AID1965]. The class given is functional.
Assay [7] has as its target T5, G-protein coupled receptor 35 (Homo sapiens, UniProt Q9HC97). Briefly: SAR analysis of Antagonists of the GPR35 Receptor using an Image-Based Assay - Set 4. [Related pubchem assays (depositor defined):[…]]. The class given is functional.
In assay [8] the target is T5, G-protein coupled receptor 35. The assay is described as follows: SAR analysis of Agonists of the GPR35 Receptor using an Image-Based Assay - Set 3. [Related pubchem assays (depositor defined):AID1961, AID1965]. The class given is functional.
The target of assay [9] is T4, Cannabinoid receptor 2. The assay is described as follows: SAR analysis of antagonists of the Cannabinoid Receptor 2 using an Image-Based Assay - Set 2. [Related pubchem assays (depositor defined):AID1961, AID1965]. The class given is functional.
The next assay has as its target Major prion protein (Homo sapiens, UniProt P04156). The class given is functional, cell-based.
Assay [10] addresses T4, Cannabinoid receptor 2. The assay is described as follows: SAR analysis of antagonists of the Cannabinoid Receptor 2 using an Image-Based Assay - Set 3. [Related pubchem assays (depositor defined):AID2013, AID2026]. The class given is functional.
Assay [11] deals with T5, G-protein coupled receptor 35. Briefly: SAR analysis of Agonists of the GPR35 Receptor using an Image-Based Assay - Set 4. [Related pubchem assays (depositor defined):AID2013, AID2026]. The class given is functional.
The target in assay [12] is T2, G-protein coupled receptor 55. Briefly: SAR Analysis of Selective Antagonists of GPR55 using an Image-Based Assay - Set 4. [Related pubchem assays (depositor defined):AID2013, AID2026]. The class given is functional.
The target in assay [13] is T4, Cannabinoid receptor 2. The assay is described as follows: SAR analysis of agonists of the Cannabinoid Receptor 2 using an Image-Based Assay - Set 3. [Related pubchem assays (depositor defined):AID2013, AID2026]. The class given is functional.
Assay [14] concerns the target T3, Cannabinoid receptor 1. Briefly: SAR analysis of antagonists of the Cannabinoid Receptor 1 using an Image-Based Assay - Set 4. [Related pubchem assays (depositor defined):AID2013, AID2026]. The class given is functional.
The target of assay [15] is T3, Cannabinoid receptor 1. Briefly: SAR analysis of agonists of the Cannabinoid Receptor 1 using an Image-Based Assay - Set 4. [Related pubchem assays (depositor defined):AID2013, AID2026]. The class given is functional.
Assay [16] concerns the target T5, G-protein coupled receptor 35. The assay is described as follows: SAR analysis of Antagonists of the GPR35 Receptor using an Image-Based Assay - Set 6. [Related pubchem assays (depositor defined):AID2013, AID2026]. The class given is functional.
In assay [17] the target is T6, Sphingosine 1-phosphate receptor 4 (Homo sapiens, UniProt O95977).
T6 sequence (O95977 whole entry): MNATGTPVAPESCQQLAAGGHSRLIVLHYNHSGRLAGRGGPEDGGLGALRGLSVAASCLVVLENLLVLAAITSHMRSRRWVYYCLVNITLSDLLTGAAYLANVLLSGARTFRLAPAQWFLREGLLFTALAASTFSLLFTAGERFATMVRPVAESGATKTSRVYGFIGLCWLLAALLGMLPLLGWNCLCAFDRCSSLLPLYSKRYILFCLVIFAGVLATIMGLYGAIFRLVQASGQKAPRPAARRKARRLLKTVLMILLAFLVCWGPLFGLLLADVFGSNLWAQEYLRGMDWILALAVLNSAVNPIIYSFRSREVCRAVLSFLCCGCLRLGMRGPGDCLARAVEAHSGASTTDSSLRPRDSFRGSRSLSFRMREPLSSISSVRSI
The assay is described as follows: Late-stage fluorescence dose response cell-based assay to identify agonists of the Sphingosine 1-Phosphate Receptor 4 (S1P4): purchased compounds EC50. [Related pubchem assays (depositor defined):AID1509, AID1523, AID1563, AID1686, AID1701, AID1801]. The class given is functional.

The target in assay [18] is T7, Tyrosine-protein phosphatase non-receptor type 22 (Homo sapiens, UniProt Q9Y2R2).
T7 sequence (Q9Y2R2 whole entry): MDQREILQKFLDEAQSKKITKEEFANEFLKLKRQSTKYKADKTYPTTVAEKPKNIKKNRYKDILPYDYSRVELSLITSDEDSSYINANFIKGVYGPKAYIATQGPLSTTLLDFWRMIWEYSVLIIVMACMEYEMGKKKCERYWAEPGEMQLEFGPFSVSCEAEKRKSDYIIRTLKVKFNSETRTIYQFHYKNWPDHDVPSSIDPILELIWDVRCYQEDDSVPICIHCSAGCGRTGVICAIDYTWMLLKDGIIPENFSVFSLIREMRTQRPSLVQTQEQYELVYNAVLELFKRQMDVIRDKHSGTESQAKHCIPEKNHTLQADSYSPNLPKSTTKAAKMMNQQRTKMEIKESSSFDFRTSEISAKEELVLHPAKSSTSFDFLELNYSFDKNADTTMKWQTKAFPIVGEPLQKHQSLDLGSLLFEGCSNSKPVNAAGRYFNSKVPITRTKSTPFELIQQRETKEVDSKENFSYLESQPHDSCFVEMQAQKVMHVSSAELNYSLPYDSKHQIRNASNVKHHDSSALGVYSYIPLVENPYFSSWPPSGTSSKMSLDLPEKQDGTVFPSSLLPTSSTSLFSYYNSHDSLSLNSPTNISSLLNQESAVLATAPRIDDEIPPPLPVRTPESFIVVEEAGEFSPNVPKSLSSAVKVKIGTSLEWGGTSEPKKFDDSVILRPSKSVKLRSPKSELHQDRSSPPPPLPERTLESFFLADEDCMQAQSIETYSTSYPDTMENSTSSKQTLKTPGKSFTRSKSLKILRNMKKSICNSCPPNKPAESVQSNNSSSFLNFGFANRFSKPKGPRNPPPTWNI
Briefly: SAR LYP1 Fluorescent Assay using OMFP substrate for In Vitro dose response studies - Set 3. [Related pubchem assays (depositor defined):AID1779, AID1784, AID2140, AID2686]. The class given is functional.

In assay [19] the target is T8, Tyrosine-protein phosphatase non-receptor type 7 (Homo sapiens, UniProt P35236).
T8 sequence (P35236 whole entry): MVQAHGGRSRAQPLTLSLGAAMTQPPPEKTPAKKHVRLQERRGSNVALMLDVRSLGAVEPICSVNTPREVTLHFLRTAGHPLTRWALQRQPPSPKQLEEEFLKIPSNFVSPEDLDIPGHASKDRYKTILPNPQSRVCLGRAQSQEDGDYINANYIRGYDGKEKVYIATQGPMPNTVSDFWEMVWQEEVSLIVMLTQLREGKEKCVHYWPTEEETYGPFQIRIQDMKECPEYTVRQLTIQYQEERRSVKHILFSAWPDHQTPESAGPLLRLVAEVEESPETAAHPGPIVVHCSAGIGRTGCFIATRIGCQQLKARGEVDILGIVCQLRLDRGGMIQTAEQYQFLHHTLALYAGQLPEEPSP
The assay is described as follows: inhibition of hematopoietic tyrosine phosphatase HePTP – biochemical, set 2, SAR follow-up (AID 449736). The class given is functional.

Assay [20] deals with T7, Tyrosine-protein phosphatase non-receptor type 22. The assay is described as follows: inhibition of lymphoid tyrosine phosphatase LYP – biochemical, pCAP fluorogenic substrate, fluorescence, set 3, SAR follow-up (AID 449727). The class given is functional.
The nature of assay [21]: HEK-293T viability loss after treatment – luminescence, T-cell screen hits, cytotoxicity control for TCR NF-kB inhibitor project, dose response (AID 489026).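 Note: cells exposed to compound about 14 hours before the viability readout.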 The class given is functional, cell-based.
The test system of another assay is J774.A1. Briefly: Confirmation of image-based Screening Assay for Inhibitors of Phagocytosis. [Related pubchem assays (depositor defined):AID1029, AID1643]. The class given is functional, cell-based. The settings on record: Mus musculus.
The target of assay [22] is Tyrosine-protein phosphatase non-receptor type 12 (Homo sapiens, UniProt Q05209). Briefly: SAR Selectivity Analysis of small molecule inhibitors of PEST using pCAP in a fluorescence assay. [Related pubchem assays (depositor defined):AID1779, AID1784, AID2135]. The class given is functional.

As for `Cc1ccc(-n2nnnc2SCC(=O)c2ccc(O)c(O)c2)cc1`, the values for the IC50 in assay [1] and in [2] were 8.58 µM (active) and 1.58 µM (active), respectively.

As for `O=C(Nc1cc(S(=O)(=O)N2CCOCC2)ccc1N1CCCC1)c1cc2c(s1)CCCC2`, the EC50 in assay [3] is 1.57 µM (active); on Cannabinoid receptor 1 [4] it was > 32 µM (inactive); at Cannabinoid receptor 2 [6], > 32 µM (inactive); in assay [8], > 32 µM (inactive). The IC50 in the assay “cells” was > 138 µM (inactive); at Cannabinoid receptor 1 [5], > 32 µM (inactive); in assay [7], > 32 µM (inactive); at Cannabinoid receptor 2 [9] it was > 32 µM (inactive); on Major prion protein, 5.47 µM (active).

In the case of `CNC(=O)c1cc2c(=O)n3ccccc3nc2n(C2CCCC2)c1=N`, the IC50 at Cannabinoid receptor 2 [10] was > 32 µM (inactive); in [12] it was 5.92 µM (active); at Cannabinoid receptor 1 [14], > 32 µM (inactive); in [16], > 32 µM (inactive). Moreover, the values for the EC50 (in assay [11]; at Cannabinoid receptor 2 [13]; on Cannabinoid receptor 1 [15]) were > 32 µM (inactive), 2.52 µM (active) and > 32 µM (inactive), respectively.

Turning to `Cc1nn(Cc2ccccc2)c(Cl)c1C(=O)OC(C)C(=O)NCc1cccs1` (stereo not given), the EC50 in assay [17] is > 50 µM (inactive).

Turning to `CCOC(=O)C(C)Oc1cccc2c(=O)n(CC(=O)NCc3ccc4c(c3)OCO4)ccc12` (stereo not given), the IC50 in assay [18] is > 100 µM (inactive); in assay [19], 11.4 µM (active); in [20] it was > 100 µM (inactive); in assay [21], > 80 µM (inactive); with J774.A1, 4.93 µM (active); in assay [22] it was > 100 µM (inactive).
